According to patent US7465724B2, “Bis-pyrrolo[2,1-c][1,4]benzodiazepine-anthraquinone conjugates and a process for the preparation thereof” (Council of Scientific and Industrial Research, priority 2006, dated 2008):

Legend:
Format in all cases: cell-based, human
Conditions in all cases: 48 h continuous drug exposure; dose to inhibit cell growth by 50% vs untreated cell controls
Hop62 = assay: In vitro cytotoxicity, SRB assay, Hop62
Protocol: (§1) Cytotoxicity: Compounds Va-c have been evaluated for the primary anticancer activity in selected human cancer cell lines. For each compound, dose response curves against each cell line were measured at a minimum of five concentrations at 10 fold dilutions. A protocol of 48 h continuous drug exposure was used and a sulforhodamine B (SRB) protein assay was used to estimate cell viability or growth. The concentration causing 50% cell growth inhibition compared with the control has been calculated.

SiHa = assay: In vitro cytotoxicity, SRB assay, SiHa
Protocol: as §1

MCF7 = assay: In vitro cytotoxicity, SRB assay, MCF7
Protocol: as §1

ZR-75-1 = assay: In vitro cytotoxicity, SRB assay, ZR-75-1
Protocol: as §1

A2780 = assay: In vitro cytotoxicity, SRB assay, A2780
Protocol: as §1

Colo205 = assay: In vitro cytotoxicity, SRB assay, Colo205
Protocol: as §1

PC3 = assay: In vitro cytotoxicity, SRB assay, PC3
Protocol: as §1

## COc1cc2c(cc1OCCCOc1ccc(OCCCOc3cc4c(cc3OC)C(=O)N3CCC[C@H]3C=N4)c3c1C(=O)c1ccccc1C3=O)N=C[C@@H]1CCCN1C2=O [Va, 1,4-Bis-{3-[7-methoxy-8-oxy-(11aS)-1,2,3,11atetrahydro-5H-pyrrolo [2,1-c][1,4]-benzodiazepin-5-one]propyloxy}anthracene-9,10-dione]
Hop62
  IC50: < 1 µM
SiHa
  IC50: 0.8 µM
MCF7
  IC50: 0.6 µM
ZR-75-1
  IC50: 0.5 µM
A2780
  IC50: 0.6 µM
Colo205
  IC50: < 1 µM
PC3
  IC50: 0.6 µM

## COc1cc2c(cc1OCCCCOc1ccc(OCCCCOc3cc4c(cc3OC)C(=O)N3CCC[C@H]3C=N4)c3c1C(=O)c1ccccc1C3=O)N=C[C@@H]1CCCN1C2=O [Vb, 1,4-Bis-{4-[7-methoxy-8-oxy-(11aS)-1,2,3,11atetrahydro-5H-pyrrolo [2,1-c][1,4]benzodiazepin-5-one]butyloxy}anthracene-9,10-dione]
SiHa
  IC50: 9 µM
MCF7
  IC50: 9 µM
A2780
  IC50: 10 µM
Colo205
  IC50: 10 µM
PC3
  IC50: 7 µM

## COc1cc2c(cc1OCCCCCOc1ccc(OCCCCCOc3cc4c(cc3OC)C(=O)N3CCC[C@H]3C=N4)c3c1C(=O)c1ccccc1C3=O)N=C[C@@H]1CCCN1C2=O [Vc, 1,4-Bis-{5-[7-methoxy-8-oxy-(11aS)-1,2,3,11atetrahydro-5H-pyrrolo [2,1-c][1,4]benzodiazepin-5-one]pentyloxy}anthracene-9,10-dione]
Hop62
  IC50: 1.4 µM
SiHa
  IC50: 0.8 µM
MCF7
  IC50: 1.2 µM
ZR-75-1
  IC50: 1.5 µM
A2780
  IC50: 0.6 µM
Colo205
  IC50: < 1 µM
PC3
  IC50: 1 µM
